# PMC9115913 (Biological chemistry, 2022)
# Several values for one entry are separate records, joined by “and”; a condition that tells them apart may be missing. Identical values can stand only once. Like-named read-outs stand apart in the source and are kept apart here.
# Key:
# PBP1a = PBP1a (Streptococcus pneumoniae, UniProt Q8DR59); assay: cell-based; format: binding; details: IC50 PBPla
# PBP1b = PBP1b (Streptococcus pneumoniae, UniProt Q7CRA4); format: binding; details: read-out: IC50 PBP1b
# PBP2x = PBP2x (Streptococcus pneumoniae, UniProt P59676); assay: cell-based; format: binding
# PBP2a = PBP2a (Streptococcus pneumoniae, UniProt Q8DNB6); assay: cell-based; format: binding
# PBP2b = PBP2b (Streptococcus pneumoniae, UniProt P0A3M6); assay: cell-based; format: binding
# PBP3 = biological target: T1, PBP3 (Streptococcus pneumoniae, UniProt Q8DQ99); details: read-out: IC50 PBP3
# T1 sequence (Q8DQ99 23-413): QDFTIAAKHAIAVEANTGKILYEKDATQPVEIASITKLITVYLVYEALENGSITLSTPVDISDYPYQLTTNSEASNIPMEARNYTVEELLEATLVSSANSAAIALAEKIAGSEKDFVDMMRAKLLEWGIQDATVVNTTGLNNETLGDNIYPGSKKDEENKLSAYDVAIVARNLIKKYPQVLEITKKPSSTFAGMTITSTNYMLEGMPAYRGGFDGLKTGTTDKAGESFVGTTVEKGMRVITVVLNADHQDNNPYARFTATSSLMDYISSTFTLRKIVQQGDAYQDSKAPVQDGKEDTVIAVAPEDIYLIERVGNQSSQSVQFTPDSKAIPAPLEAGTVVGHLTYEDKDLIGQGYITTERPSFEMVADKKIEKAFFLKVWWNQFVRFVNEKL
# S. pneumoniae IU1945 = assay: Antimicrobial susceptibility assay; format: cell-based; details: Streptococcus pneumoniae
# [1] = test system: penicillin-binding proteins (PBPs); details: S. pneumoniae, previous assessment; ref Kocaoglu et al. 2015; cited from earlier work
# [2] = test system: penicillin-binding proteins (PBPs); details: line of the Δpbp1b mutant strain; 4-fold rule
# [3] = strain IU1945, average ± SEM of two experiments
# [4] = Δpbp1b mutant strain, average ± SEM
# [5] = Δpbp1a mutant strain, average ± SEM
# Chain of PBP2a (Q8DNB6 whole entry): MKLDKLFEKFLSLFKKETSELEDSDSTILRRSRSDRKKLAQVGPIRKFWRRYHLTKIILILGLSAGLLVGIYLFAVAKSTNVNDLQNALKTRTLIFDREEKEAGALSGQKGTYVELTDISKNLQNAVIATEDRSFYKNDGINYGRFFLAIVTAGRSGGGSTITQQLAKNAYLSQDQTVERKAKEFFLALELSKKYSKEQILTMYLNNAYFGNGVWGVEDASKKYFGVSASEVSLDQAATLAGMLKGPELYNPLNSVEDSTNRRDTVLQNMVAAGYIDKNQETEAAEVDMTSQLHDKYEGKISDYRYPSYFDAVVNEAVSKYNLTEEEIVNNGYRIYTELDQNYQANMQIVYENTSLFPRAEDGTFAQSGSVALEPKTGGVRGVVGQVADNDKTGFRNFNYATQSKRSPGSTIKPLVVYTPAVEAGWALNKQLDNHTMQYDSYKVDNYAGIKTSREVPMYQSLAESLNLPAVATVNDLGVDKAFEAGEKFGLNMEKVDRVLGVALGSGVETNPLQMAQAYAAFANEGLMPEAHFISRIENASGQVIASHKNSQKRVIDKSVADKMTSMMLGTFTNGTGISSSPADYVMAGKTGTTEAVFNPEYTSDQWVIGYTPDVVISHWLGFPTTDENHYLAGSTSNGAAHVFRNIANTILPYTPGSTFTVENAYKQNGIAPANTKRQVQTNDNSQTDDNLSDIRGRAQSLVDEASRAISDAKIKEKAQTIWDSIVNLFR
# Chain of PBP1a (Q8DR59 whole entry): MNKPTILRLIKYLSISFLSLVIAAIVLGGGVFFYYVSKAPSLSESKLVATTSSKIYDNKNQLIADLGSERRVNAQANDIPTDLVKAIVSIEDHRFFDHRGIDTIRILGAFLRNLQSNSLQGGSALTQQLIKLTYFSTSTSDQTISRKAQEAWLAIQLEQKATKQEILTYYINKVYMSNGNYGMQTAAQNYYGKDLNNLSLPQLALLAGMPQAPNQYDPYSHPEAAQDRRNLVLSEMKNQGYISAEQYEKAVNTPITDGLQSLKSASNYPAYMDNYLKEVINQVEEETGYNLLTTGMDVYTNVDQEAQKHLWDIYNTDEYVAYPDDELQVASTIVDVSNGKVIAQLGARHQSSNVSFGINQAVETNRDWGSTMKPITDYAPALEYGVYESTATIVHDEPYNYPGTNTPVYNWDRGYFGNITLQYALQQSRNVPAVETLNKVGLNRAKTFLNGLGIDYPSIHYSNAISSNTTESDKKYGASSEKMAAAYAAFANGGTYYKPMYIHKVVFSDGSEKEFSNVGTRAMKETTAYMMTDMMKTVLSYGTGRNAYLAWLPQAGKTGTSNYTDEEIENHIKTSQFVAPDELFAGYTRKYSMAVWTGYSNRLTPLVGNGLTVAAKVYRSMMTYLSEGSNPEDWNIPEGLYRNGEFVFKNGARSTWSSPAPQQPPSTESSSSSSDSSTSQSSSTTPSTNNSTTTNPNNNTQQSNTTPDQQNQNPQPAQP
# Chain of PBP2b (P0A3M6 whole entry): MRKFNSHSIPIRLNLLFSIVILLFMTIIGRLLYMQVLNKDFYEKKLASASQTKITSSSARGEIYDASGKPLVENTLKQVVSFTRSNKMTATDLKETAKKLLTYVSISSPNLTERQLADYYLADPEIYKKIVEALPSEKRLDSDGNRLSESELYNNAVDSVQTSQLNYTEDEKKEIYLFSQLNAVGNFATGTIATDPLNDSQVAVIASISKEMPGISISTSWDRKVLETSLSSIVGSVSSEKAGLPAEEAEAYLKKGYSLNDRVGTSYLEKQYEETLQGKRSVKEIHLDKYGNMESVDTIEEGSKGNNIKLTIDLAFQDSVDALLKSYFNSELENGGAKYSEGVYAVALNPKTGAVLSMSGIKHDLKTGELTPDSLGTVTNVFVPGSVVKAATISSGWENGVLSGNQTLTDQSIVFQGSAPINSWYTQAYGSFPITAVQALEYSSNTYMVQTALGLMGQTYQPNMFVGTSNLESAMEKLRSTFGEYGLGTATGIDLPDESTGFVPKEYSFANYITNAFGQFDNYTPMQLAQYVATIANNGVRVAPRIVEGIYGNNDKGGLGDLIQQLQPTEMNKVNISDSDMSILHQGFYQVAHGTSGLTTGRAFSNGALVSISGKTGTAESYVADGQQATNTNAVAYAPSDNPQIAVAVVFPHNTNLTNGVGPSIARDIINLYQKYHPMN
# Chain of PBP2x (P59676 whole entry): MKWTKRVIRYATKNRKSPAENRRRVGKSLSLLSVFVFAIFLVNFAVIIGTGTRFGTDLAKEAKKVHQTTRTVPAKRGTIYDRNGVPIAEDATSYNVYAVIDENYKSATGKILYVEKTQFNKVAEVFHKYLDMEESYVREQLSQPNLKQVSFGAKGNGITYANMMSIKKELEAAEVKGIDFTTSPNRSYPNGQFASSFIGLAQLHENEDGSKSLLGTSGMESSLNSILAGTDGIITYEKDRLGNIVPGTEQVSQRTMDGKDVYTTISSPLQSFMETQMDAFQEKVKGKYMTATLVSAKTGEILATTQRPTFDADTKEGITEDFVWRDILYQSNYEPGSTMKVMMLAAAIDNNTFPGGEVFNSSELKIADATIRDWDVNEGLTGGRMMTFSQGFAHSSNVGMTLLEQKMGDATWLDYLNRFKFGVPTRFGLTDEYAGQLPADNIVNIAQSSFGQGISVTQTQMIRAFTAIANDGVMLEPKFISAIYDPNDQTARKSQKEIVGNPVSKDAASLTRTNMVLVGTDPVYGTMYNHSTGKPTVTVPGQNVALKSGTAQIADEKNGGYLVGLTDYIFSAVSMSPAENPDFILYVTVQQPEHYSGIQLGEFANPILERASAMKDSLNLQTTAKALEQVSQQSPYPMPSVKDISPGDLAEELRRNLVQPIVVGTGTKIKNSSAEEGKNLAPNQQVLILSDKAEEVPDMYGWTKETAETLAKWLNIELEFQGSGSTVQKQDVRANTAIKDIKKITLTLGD
SMILES,IC50 (PBP1a; [3]) [µM],IC50 (PBP1b; [3]) [µM],IC50 (PBP2x; [3]),IC50 (PBP2a; [3]) [µM],IC50 (PBP2b; [3]) [µM],IC50 (PBP3; [3]),MIC (S. pneumoniae IU1945) [µM],IC50 (PBP1a; [4]) [µM],IC50 (PBP1b; [5]) [µM],IC50 (PBP2x; [4]) [µM],IC50 (PBP2a; [5]) [µM],IC50 (PBP2a; [4]) [µM],IC50 (PBP2b; [5]) [µM],IC50 (PBP2b; [4]) [µM],IC50 (PBP3; [5]) [µM],IC50 (PBP3; [4]) [µM],IC50 (PBP2x; [5]) [µM],PBP selectivity (previous report) [1],PBP selectivity [2]
"CC1(C)S[C@@H]2[C@H](NC(=O)[C@H](C(=O)O)c3ccsc3)C(=O)N2[C@H]1C(=O)O [Ticarcillin, ticarcillin]",0.827 ± 0.365,1.01 ± 0.331,0.251 ± 0.109 µM,7.74 ± 2.6,3.34 ± 1.48,0.146 ± 0.087 µM,,,,,,,,,,,,,
"C[C@@H](O)[C@H]1C(=O)N2C(C(=O)[O-])=C(SC3Cn4cnc[n+]4C3)[C@H](C)[C@H]12 (stereo partly shown) [Biapenem, biapenem]",0.06 ± 0.021,6.82 ± 4.15,,0.146,0.111 ± 0.106,0.006 ± 0.001 µM,0.01,,,,,,,,,,,,
"COCC1=C(C(=O)O)N2C(=O)[C@@H](NC(=O)/C(=N\OC)c3csc(N)n3)[C@H]2SC1 [Cefpodoxime, cefpodoxime]",1.92 ± 0.581,0.907 ± 0.406,0.041 ± 0.015 µM,0.341 ± 0.125,0.522 ± 0.231,0.032 ± 0.005 µM,0.01,2.78 ± 0.886,0.301 ± 0.071,0.035 ± 0.018,0.621 ± 0.161,0.179 ± 0.081,> 1000,> 1000,0.032 ± 0.004,0.018 ± 0.004,,,
"CCOc1ccc2ccccc2c1C(=O)N[C@@H]1C(=O)N2[C@@H]1SC(C)(C)[C@@H]2C(=O)O [Nafcillin, nafcillin]",94.5 ± 88.6,32.4 ± 3.78,0.014 ± 0.006 µM,4.54 ± 1.75,1.27 ± 0.306,0.125 ± 0.061 µM,0.01,,,,,,,,,,,,
"CO/N=C(\C(=O)N[C@@H]1C(=O)N2C(C(=O)[O-])=C(C[N+]3(C)CCCC3)CS[C@H]12)c1csc(N)n1 [Cefepime, cefepime]",,,,,,,0.01,,,,,,,,,,,,
"CO/N=C(\C(=O)N[C@@H]1C(=O)N2C(C(=O)[O-])=C(C[n+]3cccc4c3CCC4)CS[C@H]12)c1csc(N)n1 [Cefpirome, cefpirome]",0.051 ± 0.011,0.024 ± 0.008,0.002 ± 0.001 µM,0.016 ± 0.004,5.53 ± 2.99,,0.01,,,,,,,,,,,,
"Cc1onc(-c2c(F)cccc2Cl)c1C(=O)N[C@@H]1C(=O)N2[C@@H]1SC(C)(C)[C@@H]2C(=O)O [Flucloxacillin, flucloxacillin]",12.4 ± 4.2,17.7 ± 4.16,0.83 µM and 0.832 µM,35.3 ± 26,18.5 ± 11.1,0.91 µM and 0.911 µM,1,11 ± 2.47,50.5 ± 2.03,2.01 ± 0.878,16 ± 2.01,51.5 ± 5.16,16.8 ± 9.3,33.5 ± 16,0.783 ± 0.581,1.95 ± 0.884,0.889 ± 0.389,,
"Cc1onc(-c2c(Cl)cccc2Cl)c1C(=O)N[C@@H]1C(=O)N2[C@@H]1SC(C)(C)[C@@H]2C(=O)O [Dicloxacillin, dicloxacillin]",0.385 ± 0.261,1.14 ± 1.37,0.042 ± 0.055 µM,4.84 ± 4.74,8.7,0.065 ± 0.051 µM,0.01,,,,,,,,,,,,
"N[C@@H](C(=O)N[C@@H]1C(=O)N2C(C(=O)O)=C(Cl)CS[C@H]12)c1ccccc1 [Cefaclor, cefaclor]",3.6 ± 1.33,8.59 ± 3.63,3.67 ± 2.52 µM,,55.4 ± 26.3,0.034 ± 0.009 µM,10,,,,,,,,,,,,
"CC1(C)S[C@@H]2[C@H](NC(=O)[C@H](NC(=O)N3CCNC3=O)c3ccccc3)C(=O)N2[C@H]1C(=O)O [Azlocillin, azlocillin]",1.53 ± 0.532,0.963 ± 0.477,0.081 ± 0.018 µM,1.4 ± 0.693,0.294 ± 0.131,0.065 ± 0.013 µM,,,,,,,,,,,,,
"C[C@@H](O)[C@H]1C(=O)N2C(C(=O)O)=C(SCCN=CN)C[C@H]12 [Imipenem, imipenem]",0.027 ± 0.005,0.052 ± 0.022,0.048 ± 0.013 µM,0.062 ± 0.021,0.052 ± 0.011,0.007 ± 0.001 µM,0.1,,,,,,,,,,,,
"C[C@@H](O)[C@H]1C(=O)N2C(C(=O)O)=C(S[C@@H]3CN[C@H](CNS(N)(=O)=O)C3)[C@H](C)[C@H]12 [Doripenem, doripenem]",,,,,,,,,,,,,,,,,,"co-selectivity towards PBP3 along with PBP1a, but these molecules were additionally co-selective for PBP2x",
"CO[C@@]1(NC(=O)C2SC(=C(C(N)=O)C(=O)O)S2)C(=O)N2C(C(=O)O)=C(CSc3nnnn3C)CS[C@@H]21 (stereo partly shown) [Cefotetan, cefotetan]",14.6 ± 6.7,0.538 ± 0.201,14.4 ± 5.77 µM,54.3 ± 21.5,,0.069 ± 0.015 µM,1,,,,,,,,,,,,
"C=CC1=C(C(=O)O)N2C(=O)[C@@H](NC(=O)/C(=N\OCC(=O)O)c3csc(N)n3)[C@H]2SC1 [Cefixime, cefixime]",32.3 ± 34.4,8.96 ± 4.6,0.336 ± 0.224 µM,4.85 ± 2.06,> 1000,0.026 ± 0.007 µM,0.1,,,,,,,,,,,,
"C[C@@H](O)[C@H]1C(=O)N2C(C(=O)O)=C(S[C@@H]3CN[C@H](C(=O)Nc4cccc(C(=O)O)c4)C3)[C@H](C)[C@H]12 [Ertapenem, ertapenem]",0.118 ± 0.064,0.137 ± 0.375,0.752 ± 0.817 µM,26.8 ± 4.08,13.8 ± 3.49,0.061 ± 0.043 µM,0.01,0.038 ± 0.012,0.326 ± 0.082,0.729 ± 0.122,,6.69 ± 0.401,3.86 ± 7.4,> 1000,0.012 ± 0.006,0.031 ± 0.011,0.341 ± 0.251,,"co-selectivity towards PBP3 and PBP1a and 3, la"
"C[C@@H](O)[C@H]1C(=O)N2C(C(=O)O)=C(S[C@@H]3CN[C@H](C(=O)N(C)C)C3)[C@H](C)[C@H]12 [Meropenem, meropenem]",,,,,,,,,,,,,,,,,,"co-selectivity towards PBP3 along with PBP1a, but these molecules were additionally co-selective for PBP2x",
"CC1(C)S[C@@H]2[C@H](NC(=O)C(C(=O)O)c3ccccc3)C(=O)N2[C@H]1C(=O)O (stereo partly shown) [Carbenicillin, carbenicillin]",1.11 ± 0.367,0.859 ± 0.285,0.962 ± 0.506 µM,5.64 ± 4.47,2.12 ± 1.15,0.018 ± 0.011 µM,0.1,,,,,,,,,,,,
"Cc1onc(-c2ccccc2Cl)c1C(=O)N[C@@H]1C(=O)N2[C@@H]1SC(C)(C)[C@@H]2C(=O)O [Cloxacillin, cloxacillin]",0.561 ± 0.219,0.977 ± 0.372,0.119 ± 0.062 µM,4.47 ± 2.24,2.36 ± 1.77,0.102 ± 0.092 µM,,,,,,,,,,,,,
